According to patent US7700608B2, “Quinazoline derivatives and their use in the treatment of thrombocythemia” (Shire Holdings AG, priority 2004, dated 2010):

What was measured:
Cord blood CD34+ cells = test: TPO-induced megakaryocytic maturation/differentiation of cord blood CD34+ cells in culture; type: cell-based; settings: for inhibition at 0.03 µM: 30 nM, CD34+ cells grown with TPO in plasma-containing medium, vs. control, read-out: inhibition of megakaryocytic maturation (percentage of GPIIIa positive cells); for Cell expansion % of control / GPIIIa expression median fluorescence % of control / GPIIIa positive cells % of control / Relative cell size % of control: 1.0 μM, 12 days, plasma-containing medium with TPO, mean ± SE, n = 4; for concentration giving maximal effect on megakaryocyte maturation / IC50: TPO-induced maturation, FIG. 1; for IC50: mean of 2-4 independent experiments, read-out: IC50 against megakaryocyte maturation
Description: Chemicals. Compound #1 was kept at room temperature. Stock solutions (10 mM) were made in DMSO, or PBS pH 5. 0, as indicated. Stock solutions were diluted in culture medium immediately before addition to cell suspensions.
(§1) Cell culture and drug regimes. Cord blood CD34+ cells were purchased from Biowhittacker USA or were freshly isolated by immunomagnetic selection using standard laboratory procedures. Cells were seeded in 24-well tissue culture plates at a density of 0.15×10^6 cells/ml and cultured for 12-14 days in Iscove's modified Dulbecco's medium containing 40 ng/ml TPO (as described in Mathur A, Hong Y. Martin J F, Erusalimsky J D (2001) Megakaryocytic differentiation is accompanied by a reduction in cell migratory potential. Br J Haematol 112:459) with anagrelide, Compound #1, or vehicle (DMSO).
(§2) Cell counting. Cell density was determined using a Sysmex CDA-500 Particle Analyzer.
(§3) Analysis of megakaryocytic differentiation. CD61 expression (a marker of megakaryocytic differentiation) was quantified by flow cytometry using an anti-GPIIIa antibody. Cell diameter was determined using a Sysmex CDA-500 Particle Analyzer.

[1] = system: non-megakaryocytic cells (CD61-); test: Growth of non-megakaryocytic (CD61-) cells in the TPO-stimulated CD34+ cultures; type: cell-based; settings: 12-day cultures, FIG. 2
Description: as §1, §2, §3
To assess whether the inhibitory activities of anagrelide and Compound #1 in these cultures were selective for the megakaryocytic lineage, the effects of these compounds were evaluated on the growth of the non-megakaryocytic cells. In 12-day control cultures these cells (CD61-) represent 20-30% of the total population.

SMILES: O=C1CN2Cc3c(ccc(Cl)c3Cl)N=C2N1 [Anagrelide]
- inhibition at 0.03 µM (Cord blood CD34+ cells): 28%
- Cell expansion % of control (Cord blood CD34+ cells): 48.0 ± 4.0 % of control
- GPIIIa expression median fluorescence % of control (Cord blood CD34+ cells): 51.3 ± 11.9 % of control
- GPIIIa positive cells % of control (Cord blood CD34+ cells): 41.9 ± 6.6 % of control
- Relative cell size % of control (Cord blood CD34+ cells): 80.4 ± 4.5 % of control
- concentration giving maximal effect on megakaryocyte maturation (Cord blood CD34+ cells): 1 µM
- IC50 (Cord blood CD34+ cells): 110 to 130 nM
- effect on growth of non-megakaryocytic cells (selectivity for megakaryocytic lineage) [1]: neither anagrelide nor Compound #1 inhibited the growth of non-megakaryocytic cells

SMILES: O=CC(=O)NC1=Nc2ccc(Cl)c(Cl)c2CN1 [Compound #1, N-(5,6-dichloro-3,4-dihydroquinazolin-2-yl)-2-oxoacetamide]
- inhibition at 0.03 µM (Cord blood CD34+ cells): 20%
- Cell expansion % of control (Cord blood CD34+ cells): 45.8 ± 3.9 % of control
- GPIIIa expression median fluorescence % of control (Cord blood CD34+ cells): 54.4 ± 14.7 % of control
- GPIIIa positive cells % of control (Cord blood CD34+ cells): 34.5 ± 4.4 % of control
- Relative cell size % of control (Cord blood CD34+ cells): 78.7 ± 5.3 % of control
- concentration giving maximal effect on megakaryocyte maturation (Cord blood CD34+ cells): 1 µM
- IC50 (Cord blood CD34+ cells): 110 to 130 nM
- effect on growth of non-megakaryocytic cells (selectivity for megakaryocytic lineage) [1]: neither anagrelide nor Compound #1 inhibited the growth of non-megakaryocytic cells
